Reference: patent publication US9101638B2, “Boronic acid derivatives and therapeutic uses thereof” (Rempex Pharmaceuticals, Inc., priority 2013, dated 2015)
Where two headings read alike, the source gives them in different places.

Legend:
EC1010 (CMY-6) [1] = assay type: cell-based
KP1005 (CTX-M-14) = assay: Potentiation of aztreonam, strain KP1005; assay type: cell-based
EC1010 (CMY-6) [2] = assay: Potentiation of aztreonam, strain EC1010; assay type: cell-based
KP1009 (CTX-M-15) [3] = assay: Potentiation of aztreonam, strain KP1009; assay type: cell-based
ec308 (SHV-5) [4] = assay: Potentiation of tigemonam, strain ec308; assay type: cell-based; settings: minimum BLI concentration inhibiting growth with 4 μg/mL tigemonam
ec302 (TEM-10) [5] = assay: Potentiation of tigemonam, strain ec302; assay type: cell-based
KP1004 (K-2) = assay: Potentiation of aztreonam, strain KP1004; assay type: cell-based; settings: minimum BLI concentration inhibiting growth with 4 μg/mL aztreonam
KPC-2 = KPC-2 (Klebsiella pneumoniae, UniProt Q9F663); assay: Inhibition of nitrocefin cleavage by purified KPC-2; assay type: biochemical; settings: nitrocefin reporter substrate, purified enzyme; read-out: Ki (KPC-2, NCF)
Chain of KPC-2 (Q9F663 25-293, looked up, species assumed): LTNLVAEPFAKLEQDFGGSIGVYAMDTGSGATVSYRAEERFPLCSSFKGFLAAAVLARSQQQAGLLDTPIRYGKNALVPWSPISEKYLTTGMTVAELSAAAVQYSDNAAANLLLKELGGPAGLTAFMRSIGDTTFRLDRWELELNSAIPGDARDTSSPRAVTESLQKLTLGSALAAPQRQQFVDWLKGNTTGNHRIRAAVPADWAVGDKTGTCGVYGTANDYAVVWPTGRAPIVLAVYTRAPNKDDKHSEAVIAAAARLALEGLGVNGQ
Experimental: (§1) Purified enzymes were mixed with various concentrations of inhibitors in reaction buffer and incubated for 10 min at room temperature. Nitrocefin was added and substrate cleavage profiles were recorded at 490 nm every 10 sec for 10 min.

ec302 (TEM-10) [6] = assay: Potentiation of aztreonam, strain ec302; assay type: cell-based
ec308 (SHV-5) [7] = assay: Potentiation of aztreonam, strain ec308; assay type: cell-based; settings: minimum BLI concentration inhibiting growth with 4 μg/mL aztreonam
ECL1002 = assay: Potentiation of aztreonam, strain ECL1002; assay type: cell-based; settings: minimum BLI concentration inhibiting growth with 4 μg/mL aztreonam
KP1009 (CTX-M-15) [8] = assay: Potentiation of tigemonam, strain KP1009; settings: minimum BLI concentration inhibiting growth with 4 μg/mL tigemonam
SHV-12 = SHV-12 (Klebsiella pneumoniae, UniProt P0AD64, E235K/G234S/L31Q); assay: Inhibition of nitrocefin cleavage by purified SHV-12; assay type: biochemical; settings: nitrocefin reporter substrate, purified enzyme; read-out: Ki (SHV-12, NCF)
Chain of SHV-12 (P0AD64 22-286 L31Q/G234S/E235K): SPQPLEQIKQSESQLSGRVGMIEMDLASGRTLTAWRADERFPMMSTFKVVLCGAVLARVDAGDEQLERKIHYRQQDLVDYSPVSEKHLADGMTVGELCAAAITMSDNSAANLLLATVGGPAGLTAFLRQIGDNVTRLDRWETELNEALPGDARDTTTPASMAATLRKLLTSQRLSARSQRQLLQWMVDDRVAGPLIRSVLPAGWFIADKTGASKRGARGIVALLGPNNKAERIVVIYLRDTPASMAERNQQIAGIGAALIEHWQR
Experimental: as §1

PAM1032/KPC-2 = assay: Biapenem potentiation in PAM1032/KPC-2 (MexAB-OprM overexpressed); assay type: cell-based, Pseudomonas aeruginosa
Experimental: (§2) Efflux of BLIs from Pseudomonas aeruginosa by the MexAB-OprM efflux pump was also evaluated. […] Due to expression of KPC-2 both strains became resistant to biapenem. […] Potency of BLIs to potentiate biapenem in these strains was determined. […] The ratio of MPC64 values for each BLI in PAM1032/KPC-2 (efflux proficient) and PAM1154/KPC-2 (efflux deficient) was determined to generate the Efflux Index (EI).

PAM1154/KPC-2 = assay: Biapenem potentiation in PAM1154/KPC-2 (MexAB-OprM lacking); assay type: cell-based, Pseudomonas aeruginosa
Experimental: as §2

CTX-M-14 = CTX-M-14 (Escherichia coli, UniProt Q9L5C7); assay: Inhibition of nitrocefin cleavage by purified CTX-M-14; assay type: biochemical; settings: nitrocefin reporter substrate, purified enzyme; read-out: Ki (CTX-M-14, NCF)
Chain of CTX-M-14 (Q9L5C7 entry or part of it): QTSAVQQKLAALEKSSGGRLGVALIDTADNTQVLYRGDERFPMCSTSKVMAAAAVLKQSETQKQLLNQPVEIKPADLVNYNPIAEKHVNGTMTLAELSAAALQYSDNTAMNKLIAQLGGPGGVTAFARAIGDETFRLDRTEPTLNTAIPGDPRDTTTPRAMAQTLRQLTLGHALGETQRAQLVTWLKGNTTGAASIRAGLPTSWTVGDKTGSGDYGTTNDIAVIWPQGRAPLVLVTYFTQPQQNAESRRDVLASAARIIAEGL
Experimental: as §1

[9] = BLI potency to decrease biapenem MIC 64-fold, 32 to 0.5 μg/ml, efflux proficient strain

Row | SMILES | TIG MPC4 CMY-6 EC1010 (EC1010 (CMY-6) [1]) | AZT MPC4 CTX-M-14 KP1005 (KP1005 (CTX-M-14)) | AZT MPC4 CMY-6 EC1010 (EC1010 (CMY-6) [2]) | AZT MPC4 CTX-M-15 KP1009 (KP1009 (CTX-M-15) [3]) | TIG MPC4 SHV-5 ec308 (ec308 (SHV-5) [4]) | TIG MPC4 TEM-10 ec302 (ec302 (TEM-10) [5]) | AZT MPC4 K-2 KP1004 (KP1004 (K-2)) | Ki (KPC-2) | AZT MPC4 TEM-10 ec302 (ec302 (TEM-10) [6]) | AZT MPC4 SHV-5 ec308 (ec308 (SHV-5) [7]) | AZT MPC4 ECL1002 (ECL1002) | TIG MPC4 CTX-M-15 KP1009 (KP1009 (CTX-M-15) [8]) | Ki (SHV-12) | PAM1032/KPC-2 Biapenem MPC64 (PAM1032/KPC-2; [9]) | PAM1154/KPC-2 Biapenem MPC64 (PAM1154/KPC-2) | PAM11154/KPC-2 Biapenem MPC64 (PAM1154/KPC-2; BLI potency to decrease biapenem MIC 64-fold, 32 to 0.5 μg/ml, efflux deficient strain) | TIG MPC4 TEM-10 ec302 (ec302 (TEM-10) [5]; minimum BLI concentration inhibiting growth with 4 μg/mL tigemonam) | PAM1032/KPC-2 Biapenem MPC64 (PAM1032/KPC-2) | Ki (CTX-M-14)
1 | CN(C)C(=O)C(=O)N[C@H]1Cc2cccc(C(=O)O)c2OB1O [Compound 9, (R)-3-(2-(dimethylamino)-2-oxoacetamido)-2-hydroxy-3,4-dihydro-2H-benzo[e][1,2]oxaborinine-8-carboxylic acid] | Y (key: X = MIC of less than 1 μg/mL; Y = MIC of 1 μg/mL to 10 μg/mL; Z = MIC of greater than 10 μg/mL) | Y (key: X = MIC of less than 1 μg/mL; Y = MIC of 1 μg/mL to 10 μg/mL; Z = MIC of greater than 10 μg/mL) | Y (key: X = MIC of less than 1 μg/mL; Y = MIC of 1 μg/mL to 10 μg/mL; Z = MIC of greater than 10 μg/mL) | Y (key: X = MIC of less than 1 μg/mL; Y = MIC of 1 μg/mL to 10 μg/mL; Z = MIC of greater than 10 μg/mL) | Y (Y = MIC of 1 μg/mL to 10 μg/mL) | Z (key: X = MIC of less than 1 μg/mL; Y = MIC of 1 μg/mL to 10 μg/mL; Z = MIC of greater than 10 μg/mL) | Y (Y = MIC of 1 μg/mL to 10 μg/mL) | > 10 nM | Y (key: X = MIC of less than 1 μg/mL; Y = MIC of 1 μg/mL to 10 μg/mL; Z = MIC of greater than 10 μg/mL) | X (X = MIC of less than 1 μg/mL) | Y (Y = MIC of 1 μg/mL to 10 μg/mL) | Y (Y = MIC of 1 μg/mL to 10 μg/mL) |  |  |  |  |  |  | 
2 | O=C(N[C@H]1Cc2cccc(C(=O)O)c2OB1O)c1cncnc1 [Compound 18, (R)-2-hydroxy-3-(pyrimidine-5-carboxamido)-3,4-dihydro-2H-benzo[e][1,2]oxaborinine-8-carboxylic acid] | X (key: X = MIC of less than 1 μg/mL; Y = MIC of 1 μg/mL to 10 μg/mL; Z = MIC of greater than 10 μg/mL) | Y (key: X = MIC of less than 1 μg/mL; Y = MIC of 1 μg/mL to 10 μg/mL; Z = MIC of greater than 10 μg/mL) | Y (key: X = MIC of less than 1 μg/mL; Y = MIC of 1 μg/mL to 10 μg/mL; Z = MIC of greater than 10 μg/mL) | Y (key: X = MIC of less than 1 μg/mL; Y = MIC of 1 μg/mL to 10 μg/mL; Z = MIC of greater than 10 μg/mL) | Y (Y = MIC of 1 μg/mL to 10 μg/mL) | Y (key: X = MIC of less than 1 μg/mL; Y = MIC of 1 μg/mL to 10 μg/mL; Z = MIC of greater than 10 μg/mL) | Y (Y = MIC of 1 μg/mL to 10 μg/mL) | > 10 nM | X (key: X = MIC of less than 1 μg/mL; Y = MIC of 1 μg/mL to 10 μg/mL; Z = MIC of greater than 10 μg/mL) | Y (Y = MIC of 1 μg/mL to 10 μg/mL) | Y (Y = MIC of 1 μg/mL to 10 μg/mL) | Y (Y = MIC of 1 μg/mL to 10 μg/mL) | < 1 nM | Z (Z Greater than 40) | X (key: X = Less than 10; Y = 10 to 40; Z Greater than 40) |  |  |  | 
3 | CN(C)C(=O)CC(=O)N[C@H]1Cc2cccc(C(=O)O)c2OB1O [Compound 10, (R)-3-(3-(dimethylamino)-3-oxopropanamido)-2-hydroxy-3,4-dihydro-2H-benzo[e][1,2]oxaborinine-8-carboxylic acid] | X (key: X = MIC of less than 1 μg/mL; Y = MIC of 1 μg/mL to 10 μg/mL; Z = MIC of greater than 10 μg/mL) | Y (key: X = MIC of less than 1 μg/mL; Y = MIC of 1 μg/mL to 10 μg/mL; Z = MIC of greater than 10 μg/mL) | X (key: X = MIC of less than 1 μg/mL; Y = MIC of 1 μg/mL to 10 μg/mL; Z = MIC of greater than 10 μg/mL) | X (key: X = MIC of less than 1 μg/mL; Y = MIC of 1 μg/mL to 10 μg/mL; Z = MIC of greater than 10 μg/mL) | Y (Y = MIC of 1 μg/mL to 10 μg/mL) |  | X (X = MIC of less than 1 μg/mL) | > 10 nM | Y (key: X = MIC of less than 1 μg/mL; Y = MIC of 1 μg/mL to 10 μg/mL; Z = MIC of greater than 10 μg/mL) | Y (Y = MIC of 1 μg/mL to 10 μg/mL) | Y (Y = MIC of 1 μg/mL to 10 μg/mL) | X (X = MIC of less than 1 μg/mL) | < 1 nM | Z (Z Greater than 40) |  | Y (Y = 10 to 40) | Z (Z = MIC of greater than 10 μg/mL) |  | 
4 | NC(=O)N[C@H]1Cc2cccc(C(=O)O)c2OB1O [Compound 6, (R)-2-hydroxy-3-ureido-3,4-dihydro-2H-benzo[e][1,2]oxaborinine-8-carboxylic acid] | X (key: X = MIC of less than 1 μg/mL; Y = MIC of 1 μg/mL to 10 μg/mL; Z = MIC of greater than 10 μg/mL) | Y (key: X = MIC of less than 1 μg/mL; Y = MIC of 1 μg/mL to 10 μg/mL; Z = MIC of greater than 10 μg/mL) | Y (key: X = MIC of less than 1 μg/mL; Y = MIC of 1 μg/mL to 10 μg/mL; Z = MIC of greater than 10 μg/mL) | Y (key: X = MIC of less than 1 μg/mL; Y = MIC of 1 μg/mL to 10 μg/mL; Z = MIC of greater than 10 μg/mL) | Z (Z = MIC of greater than 10 μg/mL) | Z (key: X = MIC of less than 1 μg/mL; Y = MIC of 1 μg/mL to 10 μg/mL; Z = MIC of greater than 10 μg/mL) | X (X = MIC of less than 1 μg/mL) |  | Z (key: X = MIC of less than 1 μg/mL; Y = MIC of 1 μg/mL to 10 μg/mL; Z = MIC of greater than 10 μg/mL) | Y (Y = MIC of 1 μg/mL to 10 μg/mL) | Z (Z = MIC of greater than 10 μg/mL) | Y (Y = MIC of 1 μg/mL to 10 μg/mL) | 1 to 10 nM |  | X (key: X = Less than 10; Y = 10 to 40; Z Greater than 40) |  |  | X (key: X = Less than 10; Y = 10 to 40; Z Greater than 40) | 1 to 10 nM
